Source: patent US20250319069A1, “METHODS FOR TREATING DEPRESSIVE STATES” (BioXcel Therapeutics, Inc., priority 2021, published 2025)

Assays:
[1] = system: Yohimbine challenged rats; assay: Elevated plus maze test in Yohimbine challenged rats (Example 2); type: in vivo, male Wistar rats; conditions: for Number of entries in the open arms (Mean ± SEM) / Time spent in the open arms (Mean ± SEM): rats given YOH 2.5 mg/kg i.p., N=12; for In the open arms: Percentage change compared to Yohimbine administered group, Number of entries / In the open arms: Percentage change compared to Yohimbine administered group, Time spent: YOH 2.5 mg/kg
Procedure: Treatment with Test Compounds: • As outlined in the table • Vehicle is Saline
After compound administration, the rat was placed on the platform opposite a closed arm. The number of entries and the time spent in each arm were recorded during a 5 min period (deliverables). The animal was considered as entered in arm when it placed its four paws into the arm.
The number of rats processed per day was about 20 in this model. Therefore, the experiment was split in several series.
Analysis of variance (ANOVA) was performed on the result data. Fisher's PLSD was used for
pairwise comparisons and p value <0.05 was considered significant.

rats = assay: Elevated plus-maze test in the rat (Example 1); conditions: for significance of effect on number of entries, % of entries and time spent in the open arms as compared with vehicle control: Dexmedetomidine 10 μg/kg i.p. (increase), Fluoxetine 32 mg/kg i.p. (decrease), vs Group 1; for anxiolytic-like / anxiogenic-like activity in the Elevated Plus Maze Test (conclusion in words): rat, Dexmedetomidine 10 μg/kg i.p., alone or co-administered
Procedure: The test, reference, comparison or vehicle formulations were administered as a single intraperitoneal dose (i.p.).
Under standard artificial lighting (˜200 Lux), there was a contrast between the closed (obscure and safe) arms and the open (brightly illuminated and anxiogenic) arms of the maze.
The day preceding the experiment, rats were randomized based on their body weight.
The maze consisted of 4 arms of equal length and width (50×10 cm) arranged in the form of a plus sign (+). Two opposite arms were enclosed by 40 cm high walls (closed arms). The 2 other arms had no walls (open arms). The maze was raised approximately 65 cm above the floor. A rat was placed in the centre of the plus-maze and left to explore for 5 minutes.
The test was video-recorded and the number of entries into the open and closed arms and the time spent on the open arms were measured automatically using a video tracking system (EthoVision, Noldus). The % of open arm entries (open arm entries/total arm entries×100) were calculated. The total distance travelled was also reported.
10 rats were studied per group. The test was performed blind over 2 days with half of animals in each group each day.
Fluoxetine (32 mg/kg i.p.) administered 30 minutes before the test was used as comparison substance.
Clobazam (16 mg/kg i.p.), administered 30 minutes before the test was used as reference substance.
All animals received 2 consecutive administrations at 30 minutes before the test.
Data (for each parameter measured) with the test substance was analysed by comparing treated groups with vehicle controls using one-way ANOVA followed by post-hoc Dunnett's tests.
Data with the comparison reference substance (clobazam) was separately analysed by comparing each treated group with vehicle controls using unpaired Student's T-tests.

[2] = Yohimbine 2.5 mg/kg i.p. + vehicle (Group 2) vs Group 1, p<0.0001
[3] = DEX 10 μg/kg i.p., DIAZEPAM 1 mg/kg i.p., or YOH + vehicle, 5 min test
[4] = Dexmedetomidine 10 μg/kg i.p., Fluvoxamine 3 mg/kg i.p., alone or combined (Group 7), diazepam 1 mg/kg i.p.
[5] = DEX 10 μg/kg or diazepam 1 mg/kg i.p.
[6] = FLUVO 3 mg/kg, alone or with DEX 10 μg/kg
[7] = FLUVO 10 mg/kg, alone or with DEX 10 μg/kg
[8] = FLUVO 3 mg/kg i.p., alone or with DEX 10 μg/kg i.p.
[9] = FLUVO 10 mg/kg i.p., alone or with DEX 10 μg/kg i.p.
[10] = DEX 10 μg/kg or diazepam 1 mg/kg i.p., listed as DEX

## COC(=O)[C@@H]1[C@H]2C[C@H]3c4[nH]c5ccccc5c4CCN3C[C@@H]2CC[C@@H]1O [YOH, Yohimbine]
[1]; [2]
  change in number of entries to the open arms as compared to vehicle (saline) treated group: −63%
  change in time spent in the open arms as compared to vehicle (saline) treated group: −81%
[1]; [3]
  Number of entries in the open arms (Mean ± SEM): 1.75 ± 0.25
  Time spent in the open arms (Mean ± SEM): 10.42 ± 1.28

## CN1C(=O)CN=C(c2ccccc2)c2cc(Cl)ccc21 [DIAZEPAM, Diazepam]
[1]; [4]
  anxiolytic-like effect in Yohimbine administered rats (conclusion in words): reversed Yohimbine-induced anxiety
[1]; [5]
  In the open arms: Percentage change compared to Yohimbine administered group, Number of entries: +262%
  In the open arms: Percentage change compared to Yohimbine administered group, Time spent: +620%
[1]; [3]
  Number of entries in the open arms (Mean ± SEM): 6.33 ± 0.28
  Time spent in the open arms (Mean ± SEM): 74.98 ± 4.31

## CNCCC(Oc1ccc(C(F)(F)F)cc1)c1ccccc1 (stereo not drawn) [Fluoxetine, N-methyl-3-(p-trifluoromethylphenoxy)-3-phenylpropylamine]
rats
  significance of effect on number of entries, % of entries and time spent in the open arms as compared with vehicle control: not significant
rats; Fluoxetine 32 mg/kg i.p. alone or with Dexmedetomidine 10 μg/kg, vs vehicle control (Group 1)
  change in total distance travelled in the four arms as compared with vehicle control: −65%
rats; Fluoxetine 32 mg/kg i.p., vs vehicle control (Group 1)
  change in total number of entries in the four arms as compared with vehicle control: −57%
rats; Fluoxetine 32 mg/kg i.p.
  anxiolytic-like / anxiogenic-like activity in the Elevated Plus Maze Test (conclusion in words): tended to show anxiogenic like effect

## COCCCCC(=NOCCN)c1ccc(C(F)(F)F)cc1 [Fluvoxamine, 5-methoxy-1-[4-(trifluoromethyl)phenyl]-1-pentanone O-(2-aminoethyl) oxime]
[1]; [4]
  anxiolytic-like effect in Yohimbine administered rats (conclusion in words): not statistically significant
[1]; Fluvoxamine 3 mg/kg i.p. (Group 5)
  significance of improvement in number of entries in the open arms compared with Yohimbine-administered vehicle group: no significant improvement
[1]; Fluvoxamine 10 mg/kg i.p. (Group 6)
  significance of improvement in number of entries in the open arms compared with Yohimbine-administered vehicle group: no significant improvement
[1]; Fluvoxamine 10 mg/kg i.p., in terms of the time spent in the open arms
  anxiolytic-like effect in Yohimbine administered rats (conclusion in words): significant anxiolytic-like effect
[1]; [6]
  In the open arms: Percentage change compared to Yohimbine administered group, Number of entries: +52%
  In the open arms: Percentage change compared to Yohimbine administered group, Time spent: +105%
[1]; FLUVO 3 mg/kg, alone or with DEX 10 μg/kg, listed as FLUVO
  In the open arms: Percentage change compared to Yohimbine administered group, Time spent: +105%
[1]; [7]
  In the open arms: Percentage change compared to Yohimbine administered group, Number of entries: +76%
  In the open arms: Percentage change compared to Yohimbine administered group, Time spent: +232%
[1]; FLUVO 10 mg/kg, alone or with DEX 10 μg/kg, listed as FLUVO
  In the open arms: Percentage change compared to Yohimbine administered group, Time spent: +232%
[1]; [8]
  Number of entries in the open arms (Mean ± SEM): 2.67 ± 0.22
  Time spent in the open arms (Mean ± SEM): 21.39 ± 2.67
[1]; [9]
  Number of entries in the open arms (Mean ± SEM): 3.08 ± 0.42
  Time spent in the open arms (Mean ± SEM): 34.60 ± 5.24

## Cc1cccc([C@H](C)c2cnc[nH]2)c1C [Dexmedetomidine, (+) 4-(S)-[1-(2,3-dimethylphenyl)ethyl]-1H-imidazole]
rats
  significance of effect on number of entries, % of entries and time spent in the open arms as compared with vehicle control: not significant
rats; Fluoxetine 32 mg/kg i.p.
  anxiolytic-like / anxiogenic-like activity in the Elevated Plus Maze Test (conclusion in words): absence of anxiolytic-like activity
[1]; [4]
  anxiolytic-like effect in Yohimbine administered rats (conclusion in words): not statistically significant
[1]; [5]
  In the open arms: Percentage change compared to Yohimbine administered group, Number of entries: +48%
  In the open arms: Percentage change compared to Yohimbine administered group, Time spent: +146%
[1]; [10]
  In the open arms: Percentage change compared to Yohimbine administered group, Number of entries: +48%
  In the open arms: Percentage change compared to Yohimbine administered group, Time spent: +146%
[1]; [3]
  Number of entries in the open arms (Mean ± SEM): 2.58 ± 0.26
  Time spent in the open arms (Mean ± SEM): 25.66 ± 3.84
